How the values were obtained:
Assay in all cases: relative viability (nuclei count vs DMSO), 5 days (fraction); higher = more cells survive
LU99A = test system: LU99A
How it was run: (§1)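 Five library-drug doses in √10 steps were combined with a fixed anchor-drug dose, or a single drug was given alone, by pin tool to lung cancer cell lines in 1536-well plates the day after seeding. Nuclei were stained and counted after 5 days. Relative viability is the nuclei count in treated wells over that in vehicle wells, taken as the median of duplicate plates.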

LC-2-ad = test system: LC-2-ad
How it was run: as §1

NCI-H358 = test system: NCI-H358
How it was run: as §1

UMC-11 = test system: UMC-11
How it was run: as §1

NCI-H1915 = test system: NCI-H1915
How it was run: as §1

NCI-H1944 = test system: NCI-H1944
How it was run: as §1

HOP-62 = test system: HOP-62
How it was run: as §1

NCI-H1666 = test system: NCI-H1666
How it was run: as §1

NCI-H1793 = test system: NCI-H1793
How it was run: as §1

HCC-78 = test system: HCC-78
How it was run: as §1

SK-LU-1 = test system: SK-LU-1
How it was run: as §1

NCI-H2085 = test system: NCI-H2085
How it was run: as §1

EPLC-272H = test system: EPLC-272H
How it was run: as §1

COR-L 105 = test system: COR-L 105
How it was run: as §1

NCI-H460 = test system: NCI-H460
How it was run: as §1

A-427 = test system: A-427
How it was run: as §1

HCC-366 = test system: HCC-366
How it was run: as §1

NCI-H2009 = test system: NCI-H2009
How it was run: as §1

NCI-H1792 = test system: NCI-H1792
How it was run: as §1

LXF-289 = test system: LXF-289
How it was run: as §1

Nc1ccn([C@@H]2O[C@H](CO)[C@@H](O)[C@@H]2O)c(=O)n1 [Cytarabine] + C[C@]1(O)C[C@@H](c2nc(-c3ccc4ccc(-c5ccccc5)nc4c3)c3c(N)nccn32)C1 [Linsitinib] (partner 1 µM)
relative viability (LU99A; first compound 0.005 µM): 0.621 | relative viability (LU99A; first compound 0.01581 µM): 0.577 | relative viability (LU99A; first compound 0.05 µM): 0.561 | relative viability (LU99A; first compound 0.1581 µM): 0.508 | relative viability (LU99A; first compound 0.5 µM): 0.47 | relative viability (LC-2-ad; first compound 0.005 µM): 0.851 | relative viability (LC-2-ad; first compound 0.01581 µM): 0.79 | relative viability (LC-2-ad; first compound 0.05 µM): 0.677 | relative viability (LC-2-ad; first compound 0.1581 µM): 0.442 | relative viability (LC-2-ad; first compound 0.5 µM): 0.223 | relative viability (NCI-H358; first compound 0.005 µM): 0.571 | relative viability (NCI-H358; first compound 0.01581 µM): 0.628 | relative viability (NCI-H358; first compound 0.05 µM): 0.494 | relative viability (NCI-H358; first compound 0.1581 µM): 0.248 | relative viability (NCI-H358; first compound 0.5 µM): 0.16 | relative viability (UMC-11; first compound 0.005 µM): 0.637 | relative viability (UMC-11; first compound 0.01581 µM): 0.637 | relative viability (UMC-11; first compound 0.05 µM): 0.424 | relative viability (UMC-11; first compound 0.1581 µM): 0.246 | relative viability (UMC-11; first compound 0.5 µM): 0.226 | relative viability (NCI-H1915; first compound 0.005 µM): 1.1 | relative viability (NCI-H1915; first compound 0.01581 µM): 0.979 | relative viability (NCI-H1915; first compound 0.05 µM): 0.842 | relative viability (NCI-H1915; first compound 0.1581 µM): 0.54 | relative viability (NCI-H1915; first compound 0.5 µM): 0.388 | relative viability (NCI-H1944; first compound 0.005 µM): 1.1 | relative viability (NCI-H1944; first compound 0.01581 µM): 0.492 | relative viability (NCI-H1944; first compound 0.05 µM): 0.424 | relative viability (NCI-H1944; first compound 0.1581 µM): 0.216 | relative viability (NCI-H1944; first compound 0.5 µM): 0.195 | relative viability (HOP-62; first compound 0.005 µM): 0.781 | relative viability (HOP-62; first compound 0.01581 µM): 0.666 | relative viability (HOP-62; first compound 0.05 µM): 0.257 | relative viability (HOP-62; first compound 0.1581 µM): 0.124 | relative viability (HOP-62; first compound 0.5 µM): 0.0827 | relative viability (NCI-H1666; first compound 0.005 µM): 0.774 | relative viability (NCI-H1666; first compound 0.01581 µM): 0.876 | relative viability (NCI-H1666; first compound 0.05 µM): 0.703 | relative viability (NCI-H1666; first compound 0.1581 µM): 0.344 | relative viability (NCI-H1666; first compound 0.5 µM): 0.305 | relative viability (NCI-H1793; first compound 0.005 µM): 0.941 | relative viability (NCI-H1793; first compound 0.01581 µM): 0.899 | relative viability (NCI-H1793; first compound 0.05 µM): 0.89 | relative viability (NCI-H1793; first compound 0.1581 µM): 0.732 | relative viability (NCI-H1793; first compound 0.5 µM): 0.391 | relative viability (HCC-78; first compound 0.005 µM): 0.538 | relative viability (HCC-78; first compound 0.01581 µM): 0.457 | relative viability (HCC-78; first compound 0.05 µM): 0.432 | relative viability (HCC-78; first compound 0.1581 µM): 0.275 | relative viability (HCC-78; first compound 0.5 µM): 0.132 | relative viability (SK-LU-1; first compound 0.005 µM): 0.954 | relative viability (SK-LU-1; first compound 0.01581 µM): 0.918 | relative viability (SK-LU-1; first compound 0.05 µM): 0.922 | relative viability (SK-LU-1; first compound 0.1581 µM): 0.476 | relative viability (SK-LU-1; first compound 0.5 µM): 0.39 | relative viability (NCI-H2085; first compound 0.005 µM): 0.677 | relative viability (NCI-H2085; first compound 0.01581 µM): 0.89 | relative viability (NCI-H2085; first compound 0.05 µM): 0.859 | relative viability (NCI-H2085; first compound 0.1581 µM): 0.585 | relative viability (NCI-H2085; first compound 0.5 µM): 0.55 | relative viability (EPLC-272H; first compound 0.005 µM): 0.883 | relative viability (EPLC-272H; first compound 0.01581 µM): 0.834 | relative viability (EPLC-272H; first compound 0.05 µM): 0.945 | relative viability (EPLC-272H; first compound 0.1581 µM): 0.522 | relative viability (EPLC-272H; first compound 0.5 µM): 0.532 | relative viability (COR-L 105; first compound 0.005 µM): 0.815 | relative viability (COR-L 105; first compound 0.01581 µM): 1.1 | relative viability (COR-L 105; first compound 0.05 µM): 0.628 | relative viability (COR-L 105; first compound 0.1581 µM): 0.443 | relative viability (COR-L 105; first compound 0.5 µM): 0.359 | relative viability (NCI-H460; first compound 0.005 µM): 0.509 | relative viability (NCI-H460; first compound 0.01581 µM): 0.514 | relative viability (NCI-H460; first compound 0.05 µM): 0.231 | relative viability (NCI-H460; first compound 0.1581 µM): 0.0385 | relative viability (NCI-H460; first compound 0.5 µM): 0.0239 | relative viability (A-427; first compound 0.005 µM): 0.909 | relative viability (A-427; first compound 0.01581 µM): 0.654 | relative viability (A-427; first compound 0.05 µM): 0.342 | relative viability (A-427; first compound 0.1581 µM): 0.181 | relative viability (A-427; first compound 0.5 µM): 0.196 | relative viability (HCC-366; first compound 0.005 µM): 0.725 | relative viability (HCC-366; first compound 0.01581 µM): 0.393 | relative viability (HCC-366; first compound 0.05 µM): 0.178 | relative viability (HCC-366; first compound 0.1581 µM): 0.0468 | relative viability (HCC-366; first compound 0.5 µM): 0.0253 | relative viability (NCI-H2009; first compound 0.005 µM): 1.11 | relative viability (NCI-H2009; first compound 0.01581 µM): 1.12 | relative viability (NCI-H2009; first compound 0.05 µM): 1.19 | relative viability (NCI-H2009; first compound 0.1581 µM): 0.83 | relative viability (NCI-H2009; first compound 0.5 µM): 0.411 | relative viability (NCI-H1792; first compound 0.005 µM): 0.46 | relative viability (NCI-H1792; first compound 0.01581 µM): 0.492 | relative viability (NCI-H1792; first compound 0.05 µM): 0.34 | relative viability (NCI-H1792; first compound 0.1581 µM): 0.348 | relative viability (NCI-H1792; first compound 0.5 µM): 0.283 | relative viability (LXF-289; first compound 0.005 µM): 0.859 | relative viability (LXF-289; first compound 0.01581 µM): 0.945 | relative viability (LXF-289; first compound 0.05 µM): 0.786 | relative viability (LXF-289; first compound 0.1581 µM): 0.493 | relative viability (LXF-289; first compound 0.5 µM): 0.279

From the supplement of paper PMC10307832
